Reference: the CheMixHub viscosity set
± gives the uncertainty stated by the source.

Experiment: xn = mol fraction of the nth substance listed
Details: 101 kPa

CCNc1ccccc1 + COC(C)(C)C gave a viscosity (293.15 K, x1 = 0.0583) of 0.428 ± 0.05 mPa·s, a viscosity (293.15 K, x1 = 0.1047) of 0.465 ± 0.05 mPa·s and a viscosity (293.15 K, x1 = 0.1493) of 0.503 ± 0.05 mPa·s. For the same compound, the viscosity (293.15 K, x1 = 0.2021) was 0.552 ± 0.05 mPa·s, the viscosity (293.15 K, x1 = 0.2544) was 0.605 ± 0.05 mPa·s and the viscosity (293.15 K, x1 = 0.3064) was 0.663 ± 0.05 mPa·s. The viscosity (293.15 K, x1 = 0.3508) was 0.718 ± 0.05 mPa·s, the viscosity (293.15 K, x1 = 0.4031) was 0.787 ± 0.05 mPa·s and the viscosity (293.15 K, x1 = 0.45) was 0.855 ± 0.05 mPa·s. The viscosity (293.15 K, x1 = 0.5021) was 0.938 ± 0.05 mPa·s, the viscosity (293.15 K, x1 = 0.5506) was 1.022 ± 0.05 mPa·s and the viscosity (293.15 K, x1 = 0.6036) was 1.123 ± 0.051 mPa·s. For the same compound, the viscosity (293.15 K, x1 = 0.6519) was 1.225 ± 0.051 mPa·s, the viscosity (293.15 K, x1 = 0.701) was 1.337 ± 0.051 mPa·s and the viscosity (293.15 K, x1 = 0.7521) was 1.465 ± 0.051 mPa·s. The viscosity (293.15 K, x1 = 0.7985) was 1.592 ± 0.051 mPa·s, the viscosity (293.15 K, x1 = 0.8501) was 1.745 ± 0.051 mPa·s and the viscosity (293.15 K, x1 = 0.9006) was 1.909 ± 0.051 mPa·s. The viscosity (293.15 K, x1 = 0.949) was 2.081 ± 0.051 mPa·s, the viscosity (298.15 K, x1 = 0.0583) was 0.412 ± 0.05 mPa·s and the viscosity (298.15 K, x1 = 0.1047) was 0.445 ± 0.05 mPa·s. The viscosity (298.15 K, x1 = 0.1493) was 0.479 ± 0.05 mPa·s, the viscosity (298.15 K, x1 = 0.2021) was 0.523 ± 0.05 mPa·s and the viscosity (298.15 K, x1 = 0.2544) was 0.57 ± 0.05 mPa·s. For the same compound, the viscosity (298.15 K, x1 = 0.3064) was 0.621 ± 0.05 mPa·s, the viscosity (298.15 K, x1 = 0.3508) was 0.668 ± 0.05 mPa·s and the viscosity (298.15 K, x1 = 0.4031) was 0.728 ± 0.05 mPa·s. It also gave a viscosity (298.15 K, x1 = 0.45) of 0.787 ± 0.05 mPa·s, a viscosity (298.15 K, x1 = 0.5021) of 0.858 ± 0.05 mPa·s and a viscosity (298.15 K, x1 = 0.5506) of 0.931 ± 0.05 mPa·s. The viscosity (298.15 K, x1 = 0.6036) was 1.017 ± 0.05 mPa·s, the viscosity (298.15 K, x1 = 0.6519) was 1.103 ± 0.051 mPa·s and the viscosity (298.15 K, x1 = 0.701) was 1.197 ± 0.051 mPa·s. The viscosity (298.15 K, x1 = 0.7521) was 1.304 ± 0.051 mPa·s, the viscosity (298.15 K, x1 = 0.7985) was 1.409 ± 0.051 mPa·s and the viscosity (298.15 K, x1 = 0.8501) was 1.536 ± 0.051 mPa·s. The viscosity (298.15 K, x1 = 0.9006) was 1.67 ± 0.051 mPa·s, the viscosity (298.15 K, x1 = 0.949) was 1.81 ± 0.051 mPa·s and the viscosity (303.15 K, x1 = 0.0583) was 0.395 ± 0.05 mPa·s. For the same compound, the viscosity (303.15 K, x1 = 0.1047) was 0.425 ± 0.05 mPa·s, the viscosity (303.15 K, x1 = 0.1493) was 0.455 ± 0.05 mPa·s and the viscosity (303.15 K, x1 = 0.2021) was 0.495 ± 0.05 mPa·s. For the same compound, the viscosity (303.15 K, x1 = 0.2544) was 0.537 ± 0.05 mPa·s, the viscosity (303.15 K, x1 = 0.3064) was 0.583 ± 0.05 mPa·s and the viscosity (303.15 K, x1 = 0.3508) was 0.625 ± 0.05 mPa·s. The viscosity (303.15 K, x1 = 0.4031) was 0.678 ± 0.05 mPa·s, the viscosity (303.15 K, x1 = 0.45) was 0.73 ± 0.05 mPa·s and the viscosity (303.15 K, x1 = 0.5021) was 0.793 ± 0.05 mPa·s. For the same compound, the viscosity (303.15 K, x1 = 0.5506) was 0.857 ± 0.05 mPa·s, the viscosity (303.15 K, x1 = 0.6036) was 0.932 ± 0.05 mPa·s and the viscosity (303.15 K, x1 = 0.6519) was 1.006 ± 0.05 mPa·s. For the same compound, the viscosity (303.15 K, x1 = 0.701) was 1.089 ± 0.05 mPa·s, the viscosity (303.15 K, x1 = 0.7521) was 1.181 ± 0.051 mPa·s and the viscosity (303.15 K, x1 = 0.7985) was 1.271 ± 0.051 mPa·s. For the same compound, the viscosity (303.15 K, x1 = 0.8501) was 1.38 ± 0.051 mPa·s, the viscosity (303.15 K, x1 = 0.9006) was 1.493 ± 0.051 mPa·s and the viscosity (303.15 K, x1 = 0.949) was 1.612 ± 0.051 mPa·s. For the same compound, the viscosity (308.15 K, x1 = 0.0583) was 0.374 ± 0.05 mPa·s, the viscosity (308.15 K, x1 = 0.1047) was 0.401 ± 0.05 mPa·s and the viscosity (308.15 K, x1 = 0.1493) was 0.429 ± 0.05 mPa·s. It also gave a viscosity (308.15 K, x1 = 0.2021) of 0.465 ± 0.05 mPa·s, a viscosity (308.15 K, x1 = 0.2544) of 0.503 ± 0.05 mPa·s and a viscosity (308.15 K, x1 = 0.3064) of 0.544 ± 0.05 mPa·s. It also gave a viscosity (308.15 K, x1 = 0.3508) of 0.582 ± 0.05 mPa·s, a viscosity (308.15 K, x1 = 0.4031) of 0.63 ± 0.05 mPa·s and a viscosity (308.15 K, x1 = 0.45) of 0.677 ± 0.05 mPa·s. The viscosity (308.15 K, x1 = 0.5021) was 0.733 ± 0.05 mPa·s, the viscosity (308.15 K, x1 = 0.5506) was 0.789 ± 0.05 mPa·s and the viscosity (308.15 K, x1 = 0.6036) was 0.856 ± 0.05 mPa·s. The viscosity (308.15 K, x1 = 0.6519) was 0.921 ± 0.05 mPa·s, the viscosity (308.15 K, x1 = 0.701) was 0.993 ± 0.05 mPa·s and the viscosity (308.15 K, x1 = 0.7521) was 1.074 ± 0.05 mPa·s. For the same compound, the viscosity (308.15 K, x1 = 0.7985) was 1.153 ± 0.051 mPa·s, the viscosity (308.15 K, x1 = 0.8501) was 1.247 ± 0.051 mPa·s and the viscosity (308.15 K, x1 = 0.9006) was 1.346 ± 0.051 mPa·s. The viscosity (308.15 K, x1 = 0.949) was 1.448 ± 0.051 mPa·s, the viscosity (313.15 K, x1 = 0.0583) was 0.351 ± 0.05 mPa·s and the viscosity (313.15 K, x1 = 0.1047) was 0.376 ± 0.05 mPa·s. It also gave a viscosity (313.15 K, x1 = 0.1493) of 0.402 ± 0.05 mPa·s, a viscosity (313.15 K, x1 = 0.2021) of 0.434 ± 0.05 mPa·s and a viscosity (313.15 K, x1 = 0.2544) of 0.469 ± 0.05 mPa·s. The viscosity (313.15 K, x1 = 0.3064) was 0.506 ± 0.05 mPa·s, the viscosity (313.15 K, x1 = 0.3508) was 0.54 ± 0.05 mPa·s and the viscosity (313.15 K, x1 = 0.4031) was 0.584 ± 0.05 mPa·s. For the same compound, the viscosity (313.15 K, x1 = 0.45) was 0.625 ± 0.05 mPa·s, the viscosity (313.15 K, x1 = 0.5021) was 0.675 ± 0.05 mPa·s and the viscosity (313.15 K, x1 = 0.5506) was 0.725 ± 0.05 mPa·s. For the same compound, the viscosity (313.15 K, x1 = 0.6036) was 0.784 ± 0.05 mPa·s, the viscosity (313.15 K, x1 = 0.6519) was 0.843 ± 0.05 mPa·s and the viscosity (313.15 K, x1 = 0.701) was 0.907 ± 0.05 mPa·s. It also gave a viscosity (313.15 K, x1 = 0.7521) of 0.979 ± 0.05 mPa·s, a viscosity (313.15 K, x1 = 0.7985) of 1.049 ± 0.05 mPa·s and a viscosity (313.15 K, x1 = 0.8501) of 1.132 ± 0.051 mPa·s. The viscosity (313.15 K, x1 = 0.9006) was 1.218 ± 0.051 mPa·s, the viscosity (313.15 K, x1 = 0.949) was 1.306 ± 0.051 mPa·s and the viscosity (318.15 K, x1 = 0.0583) was 0.325 ± 0.05 mPa·s. For the same compound, the viscosity (318.15 K, x1 = 0.1047) was 0.348 ± 0.05 mPa·s, the viscosity (318.15 K, x1 = 0.1493) was 0.371 ± 0.05 mPa·s and the viscosity (318.15 K, x1 = 0.2021) was 0.4 ± 0.05 mPa·s. For the same compound, the viscosity (318.15 K, x1 = 0.2544) was 0.432 ± 0.05 mPa·s.
